Test results published in the supplement of paper PMC10307832.

What was measured:
Experiment in all cases: relative viability (nuclei count vs DMSO), 5 days (fraction); higher = more cells survive
[1] = compound: O=C(O)c1ccc2c(c1)nc(Nc1cccc(Cl)c1)c1ccncc12 [Silmitasertib] + Cc1nc(NC(=O)N2CCC[C@H]2C(N)=O)sc1-c1ccnc(C(C)(C)C(F)(F)F)c1 [Alpelisib] (partner 2 µM)
Outline: (§1)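 Relative viability divides the nuclei count in treated wells by that in vehicle wells. Lung cancer cell lines were seeded in 1536-well plates, dosed by pin tool the next day, and fixed and stained after 5 days in one step with final 0.05% Triton X-100, 1% formaldehyde and 1 ug/ml Hoechst. Dosing was a single drug or a fixed anchor-drug dose plus five library-drug doses (not always all listed) in √10 steps, and values are medians of duplicate plates imaged at 4×.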

[2] = compound: O=C(O)c1ccc2c(c1)nc(Nc1cccc(Cl)c1)c1ccncc12 [Silmitasertib] + Nc1nc2[nH]cc(CCc3ccc(C(=O)N[C@@H](CCC(=O)O)C(=O)O)cc3)c2c(=O)[nH]1 [Pemetrexed] (partner 0.2 µM)
Outline: as §1

[3] = compound: O=C(O)c1ccc2c(c1)nc(Nc1cccc(Cl)c1)c1ccncc12 [Silmitasertib] + Nc1ncn([C@H]2C[C@H](O)[C@@H](CO)O2)c(=O)n1 [Decitabine] (partner 2 µM)
Outline: as §1

[4] = compound: O=C(O)c1ccc2c(c1)nc(Nc1cccc(Cl)c1)c1ccncc12 [Silmitasertib] + O=C(CCCCCCC(=O)Nc1ccccc1)NO [Vorinostat] (partner 1 µM)
Outline: as §1

Silmitasertib + Olaparib = compound: O=C(O)c1ccc2c(c1)nc(Nc1cccc(Cl)c1)c1ccncc12 [Silmitasertib] + O=C(c1cc(Cc2n[nH]c(=O)c3ccccc23)ccc1F)N1CCN(C(=O)C2CC2)CC1 [Olaparib] (partner 8 µM)
Outline: as §1

Cell Line	relative viability ([1]; first compound 0.04 µM)	relative viability ([1]; first compound 0.4 µM)	relative viability ([1]; first compound 1.265 µM)	relative viability ([1]; first compound 4 µM)	relative viability ([2]; first compound 0.04 µM)	relative viability ([2]; first compound 0.4 µM)	relative viability ([2]; first compound 1.265 µM)	relative viability ([2]; first compound 4 µM)	relative viability ([3]; first compound 0.04 µM)	relative viability ([3]; first compound 0.4 µM)	relative viability ([3]; first compound 1.265 µM)	relative viability ([3]; first compound 4 µM)	relative viability ([4]; first compound 0.04 µM)	relative viability ([4]; first compound 0.4 µM)	relative viability ([4]; first compound 1.265 µM)	relative viability ([4]; first compound 4 µM)	relative viability (Silmitasertib + Olaparib; first compound 0.04 µM)	relative viability (Silmitasertib + Olaparib; first compound 0.4 µM)	relative viability (Silmitasertib + Olaparib; first compound 1.265 µM)	relative viability (Silmitasertib + Olaparib; first compound 4 µM)
COR-L23	0.843	0.788	0.759	0.586	0.206	0.223	0.181	0.192	0.495	0.507	0.501	0.368	0.62	0.378	0.525	0.401	0.393	0.31	0.325	0.283
SW 1573	0.758	0.588	0.723	0.504	1.11	0.875	0.89	0.697	0.515	0.406	0.441	0.372	1.17	0.661	0.908	0.577	0.552	0.457	0.428	0.427
NCI-H2126	0.72	0.667	0.727	0.704	0.734	0.623	0.672	0.491	0.585	0.631	0.497	0.508	0.863	0.607	0.693	0.406	0.914	0.73	0.821	0.818
